Patent US20090258878A1, “TRIAZINE DERIVATIVE COMPOUND AND COMPOSITION FOR TREATING CANCER […]” (priority 2006, published 2009)
Read-outs that look alike come from different tables or passages of the source.

Experiments:
[1] = system: MCF-7 breast cancer cell line; conditions: for growth inhibition effect on cell (FIG. 1): 2 days
Method: 2×10^5 MCF-7 cells were respectively distributed into each 6 well plates and grown. Thereafter, Dan-BC1, Dan-BC2 and Dan-BC3 compounds were diluted to be dose concentration of 10, 50 and 100 μM, and after treating them into cancers for 2 days according to the concentration, they were compared by measuring the cell viability with those of drug-untreated group.

MCF-7 tumor cells = conditions: for Height of breast cancer mass / Major Axis of breast cancer mass / Minor Axis of breast cancer mass: nude mouse; for in vivo anticancer effect regarding breast cancer formed in nude mouse: two administrations of 500 μM, vs negative control mass size
Method: Weekly administration of experiment compound was initiated 2 days after measurement of tumor size. The concentration of the first administration was 500 μM, respectively.

[2] = system: breast cancers naturally formed in female mouse transformed to form cancer (HCCR-1); conditions: for anticancer effect against breast cancer formed in transformed mouse in vivo / breast cancer after one administration: 100 μM; for anti-cancer effect on transformed animal model, rank order (FIG. 11) / formation of cancer again at second injection: 100 μM weekly; for formation of cancer again at second injection: transformed mouse; for breast cancer after one administration: transformed mouse with naturally formed breast cancer
Method: Anticancer effect of Dan-BC1, Dan-BC2 and Dan-BC3 according to the present invention was assessed using the mouse transformed with human proto-oncogene causing cancer which was over-expressed in mammal.
Since the cell line used for the transformed mouse has capacity for forming tumor, it forms a carcinoma such as palpable tumor when transplanted into mammal. Cell line used in the present experiment produces a large quantity of HCCR-1 protein by overexpressing human proto-oncogene (hereafter, HCCR-1), which protein interacts with D52 protein (GenBank Reg. No. NM003288) as reported as being related to cancer (Byrne, J. A. et al., Cancer Res., 55, 2896-2903 (1995); and Bryne, J. A. et al., Oncogene, 16, 873-881 (1998) reference), activates protein Kinases C and Telomerase, incapacitates the function of controlling cell cycle checkpoint, and transforms into malignant tumor though the course of lowering the expression of egr-1 gene.

[3] = 1 week after First Administration, 500 μM
[4] = 1 day before First Administration
[5] = the day of First Administration, 500 μM

`CCCCNc1nc(NCc2ccc(C(=O)NCCOCCOCCNC(=O)c3ccccc3)cc2)nc(NC(CC)CC)n1` [Dan-BC3] was tested, and the “growth inhibition effect on cell (FIG. 1)” value (“growth inhibition effect” below) ([1]; 10 μM) was “weak growth inhibition effect on cell”, the “growth inhibition effect” value ([1]; 50 μM) was “no significant growth inhibition effect on cell” and the “cells survived compared with cells without administration” value ([1]; 100 μM, 12 hours) was “about 60%”. The “cells survived compared with cells without administration” value ([1]; 100 μM, 24 hours) was “about 37%”, the “cells survived compared with cells without administration” value ([1]; 100 μM, 36 hours) was “about 7%” and the “growth inhibition effect” value ([1]; 100 μM) was “an extinct effect on cell was apparent to the naked eye”. For the same compound, the “cells survived compared with cells without administration” value ([1]; 100 μM, 48 hours) was “all cells reached extinct”, the “extinction effect on breast cancer cell in nude mouse, rank order (FIG. 7)” value (from here on “extinction effect on breast cancer cell”) (MCF-7 tumor cells; 500 μM) was “high in case of Dan-BC1, Dan-BC3 compound, and Dan-BC2 compound in that order” and the “Height of breast cancer mass” value (MCF-7 tumor cells; [3]) was 2 mm. For the same compound, the “Major Axis of breast cancer mass” value (MCF-7 tumor cells; [3]) was 15 mm, the “Minor Axis of breast cancer mass” value (MCF-7 tumor cells; [3]) was 10 mm and the “Height of breast cancer mass” value (MCF-7 tumor cells; [4]) was 2 mm. For the same compound, the “Major Axis of breast cancer mass” value (MCF-7 tumor cells; [4]) was 4 mm, the “Minor Axis of breast cancer mass” value (MCF-7 tumor cells; [4]) was 2 mm and the “Height of breast cancer mass” value (MCF-7 tumor cells; [5]) was 5 mm. For the same compound, the “Major Axis of breast cancer mass” value (MCF-7 tumor cells; [5]) was 12 mm, the “Minor Axis of breast cancer mass” value (MCF-7 tumor cells; [5]) was 7 mm and the “in vivo anticancer effect regarding breast cancer formed in nude mouse” value (MCF-7 tumor cells) was “strong in vivo anticancer effect”. The “anticancer effect against breast cancer formed in transformed mouse in vivo” value (from here on “anticancer effect … in transformed mouse in vivo”) [2] was “showed anticancer effect”, the “anti-cancer effect on transformed animal model, rank order (FIG. 11)” value (shortened to “anti-cancer effect”) [2] was “as an order of the next Dan-BC3, and Dan-BC2” and the “formation of cancer again at second injection” value [2] was “formation of cancer was derived again at the time of the second injection”. The “breast cancer after one administration” value [2] was “breast cancer became extinct”.

In the case of `CCCCNc1nc(NCc2ccncc2)nc(NCc2ccc(C(=O)NCCOCCOCCNC(=O)c3ccccc3)cc2)n1` [Dan-BC2], the “growth inhibition effect” value ([1]; 10 μM) is reported as “weak growth inhibition effect on cell”, the “growth inhibition effect” value ([1]; 50 μM) is reported as “no significant growth inhibition effect on cell” and the “cells survived compared with cells without administration” value ([1]; 100 μM, 12 hours) is reported as “about 75%”. For the same compound, the “cells survived compared with cells without administration” value ([1]; 100 μM, 24 hours) was “about 49%”, the “cells survived compared with cells without administration” value ([1]; 100 μM, 36 hours) was “about 33%” and the “growth inhibition effect” value ([1]; 100 μM) was “an extinct effect on cell was apparent to the naked eye”. The “cells survived compared with cells without administration” value ([1]; 100 μM, 48 hours) was 20%, the “extinction effect on breast cancer cell” value (MCF-7 tumor cells; 500 μM) was “high in case of Dan-BC1, Dan-BC3 compound, and Dan-BC2 compound in that order” and the “Height of breast cancer mass” value (MCF-7 tumor cells; [3]) was 3 mm. The “Major Axis of breast cancer mass” value (MCF-7 tumor cells; [3]) was 15 mm, the “Minor Axis of breast cancer mass” value (MCF-7 tumor cells; [3]) was 10 mm and the “Height of breast cancer mass” value (MCF-7 tumor cells; [4]) was 2 mm. For the same compound, the “Major Axis of breast cancer mass” value (MCF-7 tumor cells; [4]) was 4 mm, the “Minor Axis of breast cancer mass” value (MCF-7 tumor cells; [4]) was 2 mm and the “Height of breast cancer mass” value (MCF-7 tumor cells; [5]) was 5 mm. The “Major Axis of breast cancer mass” value (MCF-7 tumor cells; [5]) was 12 mm, the “Minor Axis of breast cancer mass” value (MCF-7 tumor cells; [5]) was 10 mm and the “in vivo anticancer effect regarding breast cancer formed in nude mouse” value (MCF-7 tumor cells) was “strong in vivo anticancer effect”. For the same compound, the “anticancer effect … in transformed mouse in vivo” value [2] was “showed anticancer effect”, the “anti-cancer effect” value [2] was “as an order of the next Dan-BC3, and Dan-BC2” and the “formation of cancer again at second injection” value [2] was “formation of cancer was induced again at the time of the 2nd injection”. The “breast cancer after one administration” value [2] was “breast cancer became extinct”.

`C=CCNc1nc(NCCCC)nc(NCc2ccc(C(=O)NCCOCCOCCNC(=O)c3ccccc3)cc2)n1` [Dan-BC1] was tested, and the “growth inhibition effect” value ([1]; 10 μM) was “weak growth inhibition effect on cell”, the “growth inhibition effect” value ([1]; 50 μM) was “no significant growth inhibition effect on cell” and the “cells survived compared with cells without administration” value ([1]; 100 μM, 12 hours) was “about 68%”. For the same compound, the “cells survived compared with cells without administration” value ([1]; 100 μM, 24 hours) was “about 37%”, the “cells survived compared with cells without administration” value ([1]; 100 μM, 36 hours) was “about 27%” and the “growth inhibition effect” value ([1]; 100 μM) was “an extinct effect on cell was apparent to the naked eye”. The “cells survived compared with cells without administration” value ([1]; 100 μM, 48 hours) was “all cells reached extinction”, the “extinction effect on breast cancer cell” value (MCF-7 tumor cells; 500 μM) was “high in case of Dan-BC1, Dan-BC3 compound, and Dan-BC2 compound in that order” and the “Height of breast cancer mass” value (MCF-7 tumor cells; [3]) was 2 mm. The “Major Axis of breast cancer mass” value (MCF-7 tumor cells; [3]) was 10 mm, the “Minor Axis of breast cancer mass” value (MCF-7 tumor cells; [3]) was 8 mm and the “Height of breast cancer mass” value (MCF-7 tumor cells; [4]) was 2 mm. For the same compound, the “Major Axis of breast cancer mass” value (MCF-7 tumor cells; [4]) was 4 mm, the “Minor Axis of breast cancer mass” value (MCF-7 tumor cells; [4]) was 2 mm and the “Height of breast cancer mass” value (MCF-7 tumor cells; [5]) was 5 mm. For the same compound, the “Major Axis of breast cancer mass” value (MCF-7 tumor cells; [5]) was 12 mm, the “Minor Axis of breast cancer mass” value (MCF-7 tumor cells; [5]) was 10 mm and the “in vivo anticancer effect regarding breast cancer formed in nude mouse” value (MCF-7 tumor cells) was “strong in vivo anticancer effect”. The “anticancer effect … in transformed mouse in vivo” value [2] was “strong anticancer effect”, the “anti-cancer effect” value [2] was “the most superior” and the “breast cancer after one administration” value [2] was “extinction of breast cancer was resulted even with administration of only once”.
